Tested on: P. aeruginosa strain PAO1
Test: Biofilm prevention screen (96-well microplate, crystal violet)
Type: cell-based
Conditions: Pseudomonas aeruginosa, 32 μM, positive = prevention, negative = enhancement of biofilm formation, quadruplicate, read-out: average percentage reduction of biofilm formed relative to DMSO controls
In short: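 Read-out is the mean % change in crystal-violet-stained biofilm (A586) against DMSO wells, quadruplicates, with positive values meaning prevention. Final compound levels were 250–500 μM plus dilutions such as 160 and 32 μM. Incubation ran 16–26 h with shaking, 30° C. for P. aeruginosa PAO1 and P. fluorescens, 37° C. for S. epidermidis, each in a strain-specific modified medium.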

First: CCCCCCCCCCCCNC(=O)[C@@H]1CCCN1 [Compound 168]
Second: CCCCCCCCCCNC(=O)[C@@H]1CCCN1 [Compound 32, L-proline n-decyl amide]
The inhibition at 32 µM of the first is higher: 3% for the first, -15% for the second.

Compound `O=C(NCCCCCCCCCCCCNC(=O)[C@H]1CCCN1)[C@H]1CCCN1` [Compound 226, D-proline 1,12-diaminododecane bisamide] has an inhibition at 32 µM of -23%.

Same assay, conditions: Pseudomonas aeruginosa, 160 μM, positive = prevention, negative = enhancement of biofilm formation, quadruplicate, read-out: average percentage reduction of biofilm formed relative to DMSO controls

Going from `CCCCCCCCCCCCNC(=O)[C@@H]1CCCN1` [Compound 168] to `CCCCCCCCCCNC(=O)[C@@H]1CCCN1` [Compound 32, L-proline n-decyl amide], the inhibition at 160 µM falls from 53% to -43%.

In the case of `O=C(NCCCCCCCCCCCCNC(=O)[C@H]1CCCN1)[C@H]1CCCN1` [Compound 226, D-proline 1,12-diaminododecane bisamide], the inhibition at 160 µM is reported as 96%.

Same assay, conditions: Pseudomonas aeruginosa, 390 μM, positive = prevention, negative = enhancement of biofilm formation, quadruplicate, read-out: average percentage reduction of biofilm formed relative to DMSO controls

Going from `CCCCCCCCCCCCNC(=O)[C@@H]1CCCN1` [Compound 168] to `CCCCCCCCCCNC(=O)[C@@H]1CCCN1` [Compound 32, L-proline n-decyl amide], the inhibition at 390 µM falls from 91% to 22%.

`O=C(NCCCCCCCCCCCCNC(=O)[C@H]1CCCN1)[C@H]1CCCN1` [Compound 226, D-proline 1,12-diaminododecane bisamide] showed an inhibition at 390 µM of 95%.

Tested on: P. aeruginosa strain PAO1
Test: Improved biofilm dispersion screen (already-formed biofilms, crystal violet)
Type: cell-based
Conditions: Pseudomonas aeruginosa, 30 mM NaOH step, positive = dispersion, negative = enhancement of pre-existing biofilm, quadruplicate, read-out: average percentage reduction of biofilm relative to the two control values (dispersion)
In short: (§1)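 Biofilms were grown 24 h in duplicate plates without compound; one plate was crystal violet-stained for t0. On the other, fresh medium plus compound at 390 μM final was added for 22–26 h more, with DMSO controls giving t24. Value: average % biofilm reduction versus t0 and t24, quadruplicates.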

Going from `CCCCCCCCCCCCNC(=O)[C@@H]1CCCN1` [Compound 168] to `CCCCCCCCCCNC(=O)[C@@H]1CCCN1` [Compound 32, L-proline n-decyl amide], the inhibition at 390 µM falls from 17% to -107%.

`O=C(NCCCCCCCCCCCCNC(=O)[C@H]1CCCN1)[C@H]1CCCN1` [Compound 226, D-proline 1,12-diaminododecane bisamide] gave an inhibition at 390 µM of 7%.

Tested on: P. fluorescens strain ATCC 13525
Test: as above
Type: cell-based
Conditions: Pseudomonas fluorescens, ATCC13525, 20 mM NaOH step, positive = dispersion, negative = enhancement of pre-existing biofilm, quadruplicate, read-out: average percentage reduction of biofilm relative to the two control values (dispersion)
In short: as §1

First: CCCCCCCCCCCCNC(=O)[C@@H]1CCCN1 [Compound 168]
Second: CCCCCCCCCCNC(=O)[C@@H]1CCCN1 [Compound 32, L-proline n-decyl amide]
The inhibition at 390 µM of the first is lower: -3% for the first, 0% for the second.

Work on `O=C(NCCCCCCCCCCCCNC(=O)[C@H]1CCCN1)[C@H]1CCCN1` [Compound 226, D-proline 1,12-diaminododecane bisamide] yielded an inhibition at 390 µM of 32%.

Tested on: S. epidermidis strain ATCC 35984
Test: as above
Type: cell-based
Conditions: Staphylococcus epidermidis, ATCC35984, no NaOH, positive = dispersion, negative = enhancement of pre-existing biofilm, quadruplicate, read-out: average percentage reduction of biofilm relative to the two control values (dispersion)
In short: as §1

First: CCCCCCCCCCCCNC(=O)[C@@H]1CCCN1 [Compound 168]
Second: CCCCCCCCCCNC(=O)[C@@H]1CCCN1 [Compound 32, L-proline n-decyl amide]
The inhibition at 390 µM of the first is higher: 78% for the first, 72% for the second.

`O=C(NCCCCCCCCCCCCNC(=O)[C@H]1CCCN1)[C@H]1CCCN1` [Compound 226, D-proline 1,12-diaminododecane bisamide] was tested, and the inhibition at 390 µM was 26%.
